Consider 1 compound from US12344584B2, “KCNQ potentiators” (Eli Lilly and Company, priority 2019, dated 2025).

The experiment has as its system peripheral axons. In words: Threshold tracking of peripheral nerve excitability in anesthetized rats. Type of experiment: in vivo. The following applies: rat. As to the method:
Threshold Tracking to Measure the Effects of Example 1 at 3.10 and 30 mg/kg IP on Peripheral Nerve Excitability
Threshold tracking is a non-invasive technique that allows measurement of the excitability properties of peripheral axons by providing information about their membrane potential and ion channel function.
16 male Wistar rats from Charles River, weighing between 307-446 g ware used. Animals are group housed with standard housing conditions (4 per cage, 07:00 h to 19:00 h light phase, constant temperature (21° C.) and humidity, and free access to food and water, as well as environmental enrichment).
Rats are anesthetized with isoflurane (2-2.5%, O2 at 0.5 L/min) and then placed on their back on a heating pad to keep the tail temperature above 32° C. The placement of the ring electrodes are marked out and the marked sections of the tail are scraped with a blade to remove hair and the top layer of skin. The sites are cleaned with water and dried, allowing fora good conduction between the skin and the sticky electrodes.
A sticky ring stimulating electrode (+ve anode) is wrapped around the foot. A second sticky ring stimulating electrode (−ve cathode) is wrapped 1.5 cm from the base of the tail. A needle recording electrode is placed just off center on the top of the tail, 6 cm distal to the stimulating cathode at the base of the tail. A needle reference electrode is placed just off center on the top of the tail, 2 cm distal to the recording electrode. A sticky ground electrode is wrapped around the tail 2 cm proximal from the recording electrode.
• Start the Multitrack program (description below) and Spike. • Record 15 min of stable baseline • After the 15 min, dose with Example 1 or HEC • Take blood spot for PK at the following: • 10 min post dose • 20 min post dose • 30 min post dose • 40 min post dose • 45 min after IP (intraperitoneal) dosing with Example 1, dose XE-991 (XE-991 is a commercially available compound that blocks KCNQ potentiator effects in a formalin assay in vivo—see Y. Zheng, et al., “Activation of peripheral KCNQ channels relieves gout pain,” Pain, 156 (2015) 1025-1035; and R. Zaczek, et al., “Two New Potent Neurotransmitter Release Enhancers, 10,10-Bis(4-Pyridinylmethyl)-9(10H)-Anthracenone and 10,10-Bis(2-Fluoro-4-Pyridinylmethyl)-9(10H)-Anthracenone: Comparison to Linopirdine” The Journal of Pharmacology and Experimental Therapeutics, 285:724-730, 1998. • (XE-991 is only dosed after Example 1 at 30 mg/kg) • Take blood spot for PK at the following: • 10 min post dose (55 min post Example 1 administration) • 20 min post dose (65 min post Example 1 administration) • 30 min post dose (75 min post Example 1 administration) • 40 min post dose (85 min post Example 1 administration)
In threshold tracking assay to measure the excitability properties of peripheral axons studies in rat, compound is administered by IP at 3, 10 or 30 mg/kg using 1% hydroxyethylcellulose: 0.25% polysorbate 80:0.05% antifoam:purified water (HEC) formulation. Dry blood spots (DBS) are collected around 10, 20, 30 and terminal 40 min post-dose. DBS samples are dried at RT for around 2 h. Brain samples are obtained at terminal time point and frozen until analysis. DBS samples are shipped and stored at RT.

In the case of `CC(C)(C)[C@H](O)CNC(=O)NCc1ccnc(OCC(F)(F)F)c1` [Example 1, 1-[(2S)-2-hydroxy-3,3-dimethyl-butyl]-3-[[2-(2,2,2-trifluoroethoxy)-4-pyridyl]methyl]urea], the “Threshold Tracking absolute threshold for 40% CMAP (±SEM)” value was 121 (±10) % baseline (3 mg/kg (IP)), 140 (±8) % baseline (10 mg/kg (IP)) and 160 (±18) % baseline (30 mg/kg (IP)). Also, the “absolute threshold compared with vehicle” value (30 mg/kg IP, Bonferroni multiple comparisons test) is reported as “significantly increased absolute threshold”.
